According to publication PMC5453931, “Cathelicidin-trypsin inhibitor loop conjugate represents a promising antibiotic candidate with protease stability” (Scientific Reports, 2017):
Where a SMILES comes first, the peptide text is derived from it. Bridges are numbered along the chain shown (N, C = ends).

Columns and labels:
Raw264.7 cells [1] = assay: LPS-induced iNOS, cytokine and chemokine transcription (q-PCR); type: cell-based, Murine; settings: LPS 100 ng/mL, 6 h, q-PCR normalized to GAPDH; Fig. 6
Procedure: Murine macrophage Raw264.7 cells (3 × 10^5/well) were treated with series concentrations of hybrid peptides and LPS (100 ng/mL) for 6 h. Total RNA was isolated using RNAiso Plus kit (Takara) and synthesized into cDNA with PrimeScript Reverse Transcriptase (Takara). The cDNA was assessed by q-PCR using SYBR green master mix kit (Takara) on a Realplex Mastercycler (Eppendorf, Germany). Gene expression was calculated after being normalized to those of GAPDH levels by Δ Δ Ct method27. The accuracy of the amplification reactions was achieved by melt curve analysis.

[2] = 20% fresh human serum, 37 °C, colonies surviving 1 × MIC, Fig. 3B
trypsin = assay: Trypsin inhibition assay (NBLAN hydrolysis, Dixon method); type: biochemical; settings: 50 mM Tris–HCl pH 7.8, trypsin 0.1 mg/mL, 5 min pre-incubation at 37 °C, substrate NBLAN 48, 96, 192 μg/mL, 405 nm
Outline: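 Trypsin (0.1 mg/mL final) pre-incubated 5 min at 37 °C with hybrid peptide at […] final, in 50 mM Tris–HCl, pH 7.8, at room temperature. Reaction started with NBLAN at 48, 96 or 192 μg/mL final; p-nitroaniline monitored continuously at 405 nm. Ki determined by the Dixon method.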

trypsin or proteinase K = settings: peptide:protease 300/1 mol/mol, 30 min, 37 °C, then 1 × MIC 2 h with E. coli, S. aureus, C. albicans; colony counting; Fig. 3E
E. coli ATCC25922 = assay: Salt stability of antimicrobial activity; type: cell-based; settings: 1 × MIC, Fig. 3A
Procedure: To determine the effect of salt on the antimicrobial activity of the parental and hybrid peptides, the bacteria colonies survived 1 × MIC of peptide in the presence of salt were counted. Briefly, E. coli ATCC25922 were diluted into decent concentration and mixed with each kind of peptide solution of 1 × MIC supplemented with NaCl (0, 50, 100, 150, 200 and 400 mM), respectively. […] The salt stability of the peptides was assessed by the number of colonies.

E. coli = assay: pH stability of antimicrobial activity; type: physicochemical; settings: HCl or NaOH solution, 2 mg/mL, 37 °C, 24 h, then 1 × MIC for 2 h, CFU; Fig. 3C
Procedure: Peptide was dissolved in HCl solution or NaOH solution to a final concentration of 2 mg/mL with pH value ranging from 1.0 to 11.0, and incubated at 37 °C for 24 h[64]. […] The diluted aliquots were seeded at MH agar plates and the CFU were scored after 24 h incubation at 37 °C. The number of CFU grown out of MH broth without peptide was served as control.

Raw264.7 cells [3] = assay: LPS-induced NO, cytokine and chemokine production (Griess reagent, ELISA); type: cell-based, murine; settings: LPS 100 ng/mL, peptide 5, 10, 20 μg/mL, 24 h, Fig. 6
Procedure: RAW264.7 cells were cultured in DMEM (Gibco, Gaithersburg, USA), containing 10% fetal bovine serum, 100 U/mL streptomycin and 100 U/mL penicillin at 37 °C with 5% CO2, and plated in 24-well plate (1 × 10^6 cells/well). After adhesion, the cells were treated with LPS (100 ng/mL, from E. coli 055:B5, Sigma-Aldrich) in the absence or presence (5, 10, 20 μg/mL) of peptides for 24 h in the same condition. Untreated cells and LPS alone treated cells served as control. The NO was determined using Griess reagent (Beyotime, Jiangsu, China) according to the manufacturer’s protocol. ELISA kits (Joyee, shanghai, china) were used to detect the levels of pro-inflammatory cytokines and chemokines in RAW264.7 cell culture supernatant, including TNF-α, IL-6, IL-1β and MCP-1.

E. coli 08040726 = assay: Bacterial killing kinetic assay, colony counting; type: cell-based
Procedure: The bacterial killing kinetics of the hybrid peptides against E. coli 08040726 was determined by counting the changes in the viable bacterial clones after peptide treatment. The experiment was carried out according to the method described previously with minor modifications. Fresh colonies of the bacteria were incubated in MH broth at 37 °C for 12 h and diluted to 10^6 CFU/in fresh MH broth. The hybrid peptide was added to the bacterial suspension with a final concentration of 1x and 5x corresponding MICs, and incubated at 37 °C for 0, 10, 20, 30, 45, 60, 90, 120, and 180 mins. At each time point, aliquots (50 μL) were removed and diluted with fresh MH broth for 1000 times. […] of the dilutions were coated on MH agar plates, incubated overnight at 37 °C, and the viable colonies were counted. Ampicillin was used as positive control and sterile deionized water was used as negative control.

CC[C@H](C)[C@@H]1NC(=O)[C@H](CO)NC(=O)[C@H](CCCCN)NC(=O)[C@H]([C@@H](C)O)NC(=O)[C@H](Cc2c[nH]c3ccccc23)NC(=O)[C@@H](N)CSSC[C@@H](C(=O)N[C@@H](CCCCN)C(=O)N[C@@H](Cc2ccccc2)C(=O)N[C@@H](Cc2ccccc2)C(=O)N[C@@H](CCCCN)C(=O)N[C@@H](CCCNC(=N)N)C(=O)N[C@@H](Cc2ccccc2)C(=O)N[C@@H](Cc2ccccc2)C(=O)N[C@@H](CCCCN)C(=O)N[C@@H](CO)C(=O)N[C@@H](Cc2ccccc2)C(=O)N[C@@H](CCCNC(=N)N)C(=O)N[C@@H](CCCNC(=N)N)C(=O)N[C@@H](C)C(=O)N[C@@H](Cc2ccccc2)C(=O)N[C@@H](CCCCN)C(=O)N[C@@H](CCCCN)C(=O)N[C@@H](Cc2ccccc2)C(N)=O)NC(=O)[C@@H]2CCCN2C(=O)[C@H](CCCCN)NC(=O)[C@@H]2CCCN2C(=O)[C@@H]2CCCN2C1=O [TIH3F] (H-CWTKSIPPKPCKFFKRFFKSFRRAFKKF-NH2; disulfide 1-11)
LPS-induced mRNA of iNOS, TNF-α, IL-1β, IL-6, MCP-1 (Raw264.7 cells [1]): strongest inhibitory effect | kill (%) after incubation with human serum ([2]; 6 h): 75% | kill (%) / antimicrobial activity kept after incubation with human serum ([2]; 36 h): 65% | Ki (trypsin): 1.5 µM | antimicrobial activity after treatment with trypsin or proteinase K (trypsin or proteinase K): negligible antimicrobial activity decrease | antimicrobial activity (kill %) in presence of salt (E. coli ATCC25922; 50 mM NaCl, colony counting): not affected | kill (%) in presence of salt (E. coli ATCC25922; NaCl increased from 100 mM up to 200 mM): declined by half | killing effect in presence of salt (E. coli ATCC25922; NaCl raised from 100 mM to 400 mM): decreased by half | antimicrobial activity against E. coli after incubation at pH 1.0–11.0 (E. coli): unaffected | LPS-induced production of NO, TNF-α, IL-6, IL-1β, MCP-1 (Raw264.7 cells [3]): strongest anti-inflammation effect | time of killing toward E. coli (E. coli 08040726; 1xMIC): ≤ 2 h | time of killing toward E. coli (E. coli 08040726; 5xMIC): ≤ 0.5 h
